Source: ChEMBL document CHEMBL1142747, “Prostatic acid phosphatase in cloacal derivatives” (Bioorg Med Chem Lett, 2005)

What was measured:
[1] = Half life of ECA-ATL in serum; format: ADME, cell-free; settings: human
[2] = Half life of ECA-ATL in buffer at pH 7.4; format: ADME

half-life [1] [min]	half-life [2] [days]	SMILES
< 2	4.58	C=C(CC)C(=O)c1ccc(OCC(=O)OCCOCCO)c(Cl)c1Cl
30	0.583	C=C(CC)C(=O)c1ccc(OCC(=O)OC(CNC(C)C)COc2ccc(CC(N)=O)cc2)c(Cl)c1Cl (stereo not drawn)
< 2	5.42	C=C(CC)C(=O)c1ccc(OCC(=O)OCCOCCOCCOCCO)c(Cl)c1Cl
< 2	5	C=C(CC)C(=O)c1ccc(OCC(=O)OCCOCCOCCOCCOCCOCCO)c(Cl)c1Cl
